Test results published in patent publication US4523033A, “Heart testing compound” (The United States of America as represented by the United …, priority 1983, dated 1985).
Where two headings read alike, the source gives them in different places.

Assays:
[1] = cited from earlier work
[2] = Tissue distribution of radioactivity in rats after intravenous administration; format: in vivo; settings: rat; for tissue uptake at 5 min / tissue uptake at 0.5 h / tissue uptake at 1 h / tissue uptake at 2 h / tissue uptake at 6 h / tissue uptake at 24 h / tissue uptake at 120 h: iv
Method: In Table I, the tissue distribution of radioactivity in rats after intravenous administration of a bovine serium-albumin complex of the 15-(p-[^125 I]-iodophenyl)-6-Tellurapentadecanoic acid is summarized for various time periods from 5 minutes to 5 days.

[3] = Cumulative excretion of radioactivity in urine and feces after injection; format: in vivo; settings: rat
Method: These studies were conducted over a five-day period, which represents a decay period of […] for 13.2-hr iodine-123. The cumulative excretion levels in urine and feces were 43.2±1.8% injected dose after two days and […] after five days. The radioactive content of the urine (20.8±2.1%) and feces 22.4±1.1%) were similar after two days, but after five days the cumulative fecal activity (41.4±4.3%) was greater than that for urine (30.5±4.0%).

[4] = after five days, % injected dose, 7200 min
[5] = after two days, % injected dose, 2880 min

## CCCCCCCC[123Te]CCCCCCCC(=O)O [9-[^123m Te] telluraheptadecanoic acid]
[1]; Knapp et al 1981
  Uptake and retention in the myocardium (in words): rapid uptake and prolonged retention in the myocardium

## O=C(O)CCCCCCCCCCCCCCc1ccc([125I])cc1 [15-(p-[^125 I]iodophenyl) pentadecanoic acid]
[1]; background
  Washout from the myocardium (in words): relatively rapid

## O=C(O)CCCC[Te]CCCCCCCCCc1ccc([125I])cc1 [15-(p-[^125 I]iodophenyl)-6-tellurapentadecanoic acid]
[2]; after 6 hours
  Heart retention of the maximum uptake observed after 5 minutes: 80%
[2]; after 24 hours
  Heart retention of the maximal value: 55%
[2]; blood, 5 min, read-out: Distribution of radioactivity, Blood
  tissue uptake at 5 min: 0.26 %ID/g
[2]; blood, 30 min, read-out: Distribution of radioactivity, Blood
  tissue uptake at 0.5 h: 0.45 %ID/g
[2]; blood, 60 min, read-out: Distribution of radioactivity, Blood
  tissue uptake at 1 h: 0.34 %ID/g
[2]; blood, 2 h, read-out: Distribution of radioactivity, Blood
  tissue uptake at 2 h: 0.42 %ID/g
[2]; blood, 6 h, read-out: Distribution of radioactivity, Blood
  tissue uptake at 6 h: 0.31 %ID/g
[2]; blood, 1 d, read-out: Distribution of radioactivity, Blood
  tissue uptake at 24 h: 0.2 %ID/g
[2]; blood, 5 d, read-out: Distribution of radioactivity, Blood
  tissue uptake at 120 h: 0.03 %ID/g
[2]; heart, 5 min, read-out: Distribution of radioactivity, Heart
  tissue uptake at 5 min: 5.87 %ID/g
[2]; heart, 30 min, read-out: Distribution of radioactivity, Heart
  tissue uptake at 0.5 h: 5.43 %ID/g
[2]; heart, 60 min, read-out: Distribution of radioactivity, Heart
  tissue uptake at 1 h: 5.55 %ID/g
[2]; heart, 2 h, read-out: Distribution of radioactivity, Heart
  tissue uptake at 2 h: 5.85 %ID/g
[2]; heart, 6 h, read-out: Distribution of radioactivity, Heart
  tissue uptake at 6 h: 4.78 %ID/g
[2]; heart, 1 d, read-out: Distribution of radioactivity, Heart
  tissue uptake at 24 h: 3.25 %ID/g
[2]; heart, 5 d, read-out: Distribution of radioactivity, Heart
  tissue uptake at 120 h: 0.94 %ID/g
[2]; i.v.
  Blood clearance (in words): rapid blood clearance
  Blood levels (in words): low blood levels
  Deiodination (in words): minimal deiodination
  Myocardial uptake (in words): rapid and pronounced myocardial uptake
  Radioactivity accumulated in thyroid tissue (in words): Only marginal radioactivity accumulated in the thyroid tissue
  Retention of radioactivity in the heart (in words): Prolonged retention of radioactivity
[2]; i.v., 5 min
  Distribution of radioactivity, Blood: 2.00 % injected dose/organ
  Distribution of radioactivity, Heart: 2.98 % injected dose/organ
  Distribution of radioactivity, Kidneys: 1.25 % injected dose/organ
  Distribution of radioactivity, Liver: 50.94 % injected dose/organ
  Distribution of radioactivity, Lungs: 0.97 % injected dose/organ
  Distribution of radioactivity, Thyroid: 0.02 % injected dose/organ
[2]; i.v., 30 min
  Distribution of radioactivity, Blood: 3.41 % injected dose/organ
  Distribution of radioactivity, Heart: 2.61 % injected dose/organ
  Distribution of radioactivity, Kidneys: 1.52 % injected dose/organ
  Distribution of radioactivity, Liver: 39.28 % injected dose/organ
  Distribution of radioactivity, Lungs: 1.05 % injected dose/organ
  Distribution of radioactivity, Thyroid: 0.02 % injected dose/organ
[2]; i.v., 60 min
  Distribution of radioactivity, Blood: 2.66 % injected dose/organ
  Distribution of radioactivity, Heart: 2.87 % injected dose/organ
  Distribution of radioactivity, Kidneys: 1.73 % injected dose/organ
  Distribution of radioactivity, Liver: 39.03 % injected dose/organ
  Distribution of radioactivity, Lungs: 1.01 % injected dose/organ
  Distribution of radioactivity, Thyroid: 0.02 % injected dose/organ
[2]; i.v., 2 h
  Distribution of radioactivity, Blood: 3.01 % injected dose/organ
  Distribution of radioactivity, Heart: 2.87 % injected dose/organ
  Distribution of radioactivity, Kidneys: 1.53 % injected dose/organ
  Distribution of radioactivity, Liver: 44.03 % injected dose/organ
  Distribution of radioactivity, Lungs: 1.29 % injected dose/organ
  Distribution of radioactivity, Thyroid: 0.04 % injected dose/organ
[2]; i.v., 6 h
  Distribution of radioactivity, Blood: 2.26 % injected dose/organ
  Distribution of radioactivity, Heart: 2.32 % injected dose/organ
  Distribution of radioactivity, Kidneys: 1.25 % injected dose/organ
  Distribution of radioactivity, Liver: 46.39 % injected dose/organ
  Distribution of radioactivity, Lungs: 0.85 % injected dose/organ
  Distribution of radioactivity, Thyroid: 0.07 % injected dose/organ
[2]; i.v., 1 d
  Distribution of radioactivity, Blood: 1.50 % injected dose/organ
  Distribution of radioactivity, Heart: 1.60 % injected dose/organ
  Distribution of radioactivity, Kidneys: 0.81 % injected dose/organ
  Distribution of radioactivity, Liver: 34.28 % injected dose/organ
  Distribution of radioactivity, Lungs: 0.70 % injected dose/organ
  Distribution of radioactivity, Thyroid: 0.26 % injected dose/organ
[2]; i.v., 5 d
  Distribution of radioactivity, Blood: 0.23 % injected dose/organ
  Distribution of radioactivity, Heart: 0.45 % injected dose/organ
  Distribution of radioactivity, Kidneys: 0.23 % injected dose/organ
  Distribution of radioactivity, Liver: 6.46 % injected dose/organ
  Distribution of radioactivity, Lungs: 0.24 % injected dose/organ
  Distribution of radioactivity, Thyroid: 0.32 % injected dose/organ
[2]; kidneys, 5 min, read-out: Distribution of radioactivity, Kidneys
  tissue uptake at 5 min: 1.02 %ID/g
[2]; kidneys, 30 min, read-out: Distribution of radioactivity, Kidneys
  tissue uptake at 0.5 h: 1.25 %ID/g
[2]; kidneys, 60 min, read-out: Distribution of radioactivity, Kidneys
  tissue uptake at 1 h: 1.41 %ID/g
[2]; kidneys, 2 h, read-out: Distribution of radioactivity, Kidneys
  tissue uptake at 2 h: 1.37 %ID/g
[2]; kidneys, 6 h, read-out: Distribution of radioactivity, Kidneys
  tissue uptake at 6 h: 1.12 %ID/g
[2]; kidneys, 1 d, read-out: Distribution of radioactivity, Kidneys
  tissue uptake at 24 h: 0.7 %ID/g
[2]; kidneys, 5 d, read-out: Distribution of radioactivity, Kidneys
  tissue uptake at 120 h: 0.2 %ID/g
[2]; liver, 5 min, read-out: Distribution of radioactivity, Liver
  tissue uptake at 5 min: 9.57 %ID/g
[2]; liver, 30 min, read-out: Distribution of radioactivity, Liver
  tissue uptake at 0.5 h: 7.78 %ID/g
[2]; liver, 60 min, read-out: Distribution of radioactivity, Liver
  tissue uptake at 1 h: 7.69 %ID/g
[2]; liver, 2 h, read-out: Distribution of radioactivity, Liver
  tissue uptake at 2 h: 8.38 %ID/g
[2]; liver, 6 h, read-out: Distribution of radioactivity, Liver
  tissue uptake at 6 h: 8.37 %ID/g
[2]; liver, 1 d, read-out: Distribution of radioactivity, Liver
  tissue uptake at 24 h: 6.24 %ID/g
[2]; liver, 5 d, read-out: Distribution of radioactivity, Liver
  tissue uptake at 120 h: 1.28 %ID/g
[2]; lungs, 5 min, read-out: Distribution of radioactivity, Lungs
  tissue uptake at 5 min: 1.14 %ID/g
[2]; lungs, 30 min, read-out: Distribution of radioactivity, Lungs
  tissue uptake at 0.5 h: 1.25 %ID/g
[2]; lungs, 60 min, read-out: Distribution of radioactivity, Lungs
  tissue uptake at 1 h: 1.48 %ID/g
[2]; lungs, 2 h, read-out: Distribution of radioactivity, Lungs
  tissue uptake at 2 h: 1.57 %ID/g
[2]; lungs, 6 h, read-out: Distribution of radioactivity, Lungs
  tissue uptake at 6 h: 1.1 %ID/g
[2]; lungs, 1 d, read-out: Distribution of radioactivity, Lungs
  tissue uptake at 24 h: 0.89 %ID/g
[2]; lungs, 5 d, read-out: Distribution of radioactivity, Lungs
  tissue uptake at 120 h: 0.33 %ID/g
[2]; thyroid, 5 min, read-out: Distribution of radioactivity, Thyroid
  tissue uptake at 5 min: 1.52 %ID/g
[2]; thyroid, 30 min, read-out: Distribution of radioactivity, Thyroid
  tissue uptake at 0.5 h: 1.51 %ID/g
[2]; thyroid, 60 min, read-out: Distribution of radioactivity, Thyroid
  tissue uptake at 1 h: 1.48 %ID/g
[2]; thyroid, 2 h, read-out: Distribution of radioactivity, Thyroid
  tissue uptake at 2 h: 3.51 %ID/g
[2]; thyroid, 6 h, read-out: Distribution of radioactivity, Thyroid
  tissue uptake at 6 h: 5.89 %ID/g
[2]; thyroid, 1 d, read-out: Distribution of radioactivity, Thyroid
  tissue uptake at 24 h: 22.8 %ID/g
[2]; thyroid, 5 d, read-out: Distribution of radioactivity, Thyroid
  tissue uptake at 120 h: 30.2 %ID/g
[2]; thyroid, after 5 minutes, read-out: Radioactivity accumulated in the thyroid tissue
  tissue uptake at 5 min: 1.52 %ID/g
[2]; thyroid, after 6 hours, read-out: Radioactivity accumulated in the thyroid tissue
  tissue uptake at 6 h: 5.84 %ID/g
[3]; [4]
  Cumulative excretion in urine and feces: 71.6±8.3%
  Cumulative fecal activity: 41.4±4.3%
  Cumulative urine activity: 30.5±4.0%
[3]; after two days, 2880 min
  Cumulative excretion in urine and feces: 43.2±1.8 % injected dose
[3]; [5]
  Radioactive content of the feces: 22.4±1.1%
  Radioactive content of the urine: 20.8±2.1%

## O=C(O)CCCCCCCCCCCCCCc1ccc(I)cc1 [15-(p-iodophenyl) pentadecanoic acid]
[1]; Machulla et al 1980
  Concentration of radioactive iodide in the blood (in words): avoids the high concentration of radioactive iodide in the blood
